Measured values: patent US10155041B2, “Bacterial phospholipase inhibitors as modulator of colonic bacterial flora” (Universitaetsklinikum Heidelberg, priority 2014, dated 2018)

Columns and labels:
bacterial PLA2 = assay: Determination of PLA2 activity in bacterial lysates (Bhat et al. 1993); format: biochemical
Description: FIG. 1 For determination of phospholipase A2 activity according to Bhat et al. (1993), 10 μl of aliquots of certain isolated bacterial strains prepared from fresh stool samples were incubated with arachidonoyl-thio phosphatidylcholine for 1 hour at 25° C. in a Ca^2+ free buffer as described herein. The reaction was terminated by 5,5-dithio-bis-2-nitrobenzoic acid. A405 was measured and specific PLA2 activity expressed as μmol LPC·mg^−1 protein·h^−1
Suspensions of the respective bacterial strain in 0.9% NaCl were prepared in Sarstedt tubes and adjusted to 1.0 (3×10^8CFU/ml) with opacimeter (Densimat® or Densicheck®). Subsequently, a BHI (brain heart infusion, purchased from Merck) was inoculated with 500 μl of the suspension and incubated at 37° C. aerob or in an airtight jar with BD Gas Pak™ for 16 hours overnight on a shaker. […]
PLA2 activity was determined as described by Bhat, et al. (1993).
For substrate preparation, 125 μg substrate arachidonyl PC (AAPC) was pipetted into Eppendorf reaction tubes (therefore, the volume to pipet from AAPC stocks in ethanol as supplied by Cayman Chemicals was calculated). […]
Finally, the absorption was read at 405 nm and 595 nm.
A unit of PLA2 is defined as a nmol of product formed by 1 ml sample in 1 h incubation. PLA2 activity was determined using the following formula: PLA2 activity(unit)=(OD405 nm−OD595 nm)×78.62×50

[1] = tested on: host mucosal epithelial cells; assay: Absorption from the intestinal lumen; settings: intestinal lumen of the host
hepatic PLA2 = settings: Stremmel & Staffer, 2012, et al.; cited from earlier work

ursodeoxycholyl lysophosphatidylethanolamide [UDCA-LPE]
inhibition of bacterial PLA2 (bacterial PLA2): potent inhibitors | absorption by host mucosal epithelial cells [1]: do not enter/are not absorbed by the host mucosal epithelial cells in a considerable amount | inhibition of bacterial phospholipase C (PLC) (phospholipase C (PLC)): shown to be inhibited | inhibition of hepatic PLA2 (hepatic PLA2): interferes with hepatic PLA2
